Assay results taken from patent publication US9663478B2, “Benzotriazine oxides as drugs targeting Mycobacterium tuberculosis” (priority 2011, dated 2017).
Converted amounts (≈) assume the structure as drawn. “Also recorded” adds a separate entry of the source. Where two headings read alike, the source gives them in different places.

Legend:
[1] = test system: Salmonella typhimurium tester strain TA98; assay: Salmonella/microsome plate incorporation assay (Ames screen), TA98; assay type: cell-based
Description: (§1) A liability in developing any bioreductively-activated antimicrobial drug is the potential for mutagenicity. Because the basis for activity of these compounds is the generation of intermediate radical species, undesirable mutagenicity poses a risk, as has been documented for many classes of bioreductive drugs, including the BTO tirapazamine (TPZ).^19,20 The most convenient methodology for assessing the potential to induce genetic damage is to use the plate incorporation method with Salmonella typhimurium strains TA98 and TA100, commonly known as the Ames assay. The Salmonella tester strains have mutations in the histidine operon, a mutation that leads to defective lipopolysaccharide (rfa), and a deletion that covers genes involved in the synthesis of biotin (bio) and in the repair of ultraviolet-induced DNA damage (uvrB).^21,22 These mutations make the strains more permeable to many molecules and increase their susceptibility to the mutagenic effects of these molecules. Given that the hypothesized mechanism of the BTO compounds is to selectively form cytotoxic radical species in bacteria over mammalian cells, a microbial mutagenicity assay is not ideal, but was used to benchmark their activities in this assay. […] Individual plate counts and their means and standard deviations, along with the condition of the background lawn, are presented in SI Table 2.
(§2) Experimental compounds were screened for microbial mutagenicity activity using the plate incorporation method with Salmonella typhimurium tester strains TA98 and TA100, in the presence and absence of an Aroclor 1254-induced rat-liver metabolic activation system containing 10% S9 (MA). The presence of the appropriate genetic characteristics was verified for the strains used in this study. Stock solutions were made by dissolving each test sample in dimethyl sulfoxide (DMSO) at 5 mg/ml. These initial stock concentrations were then serially diluted to achieve dose formulations of 100, 50, 10, 5, 1, 0.5, and 0.1 μg/plate (dosing volume 100 μl). Test plates were compared with the control plates for their revertant count and for the condition of the background bacterial lawn. A test article was considered a mutagen when the mean number of revertant colonies on the test plates exceeds the mean solvent control counts by at least a two-fold margin. Dose relatedness was also taken into account when evaluating a mutagenic response. Cytotoxicity was estimated by several parameters: a substantial decrease in the number of revertant colonies on the test plates, clearing or absence of the background bacterial lawn growth, formation of pinpoint nonrevertant colonies, or complete absence of bacterial growth.

[2] = Plasma pharmacokinetics in female mice after oral administration; assay type: in vivo, mouse; conditions: female Balb/c mice, po 100 mg/kg
[3] = test system: Salmonella typhimurium -Hisg46 SRI Collection; assay: Spectrum of antimicrobial activity; assay type: cell-based
[4] = test system: Enterococcus fecalis ATCC 29212; assay: Spectrum of antimicrobial activity; assay type: cell-based
[5] = test system: Mycobacterium abscessus ATCC 19977; assay: Spectrum of antimicrobial activity; assay type: cell-based
[6] = test system: Klebsiella pneumoniae ATCC 700721; assay: Spectrum of antimicrobial activity; assay type: cell-based
[7] = test system: Salmonella typhimurium tester strain TA100; assay: Salmonella/microsome plate incorporation assay (Ames screen), TA100; assay type: cell-based
Description: as §1, §2

[8] = test system: Salmonella choleraesuis ATCC 13311; assay: Spectrum of antimicrobial activity; assay type: cell-based
Mtb H37Rv = assay: TB MIC - SRI, resazurin-based microplate assay; assay type: cell-based, Mycobacterium tuberculosis; conditions: for MIC: Mycobacterium tuberculosis, H37RV
[9] = test system: Escherichia coli ATCC 25922; assay: Spectrum of antimicrobial activity; assay type: cell-based
[10] = test system: mouse lymphoma cell tk+/−→tk−/− gene mutation; assay: Mouse lymphoma cell tk+/−→tk−/− gene mutation (MOLY) assay; assay type: cell-based
Description: as §1
Experiments were conducted using a standard procedure for evaluating mutagenic potential.^23,24 The details on cell line, experimental procedures and data interpretaion have been previously published.^54 The following endpoints were evaluated in cells following exposure to 15fa and 20q: cell growth during expression periods, relative suspension growth, relative total growth, relative cloning efficiency, mutation frequency, and numbers of small (≦0.6 mm in diameter) colonies from trifluorothymidine-resistant (TFT^r) cells.

[11] = TA98, with metabolic activation (10% S9), 0.1 μg per plate
[12] = TA98, with metabolic activation (10% S9), 0.5 μg per plate
[13] = TA98, with metabolic activation (10% S9), 1 μg per plate
[14] = TA98, with metabolic activation (10% S9), 5 μg per plate
[15] = TA98, with metabolic activation (10% S9), 10 μg per plate
[16] = TA98, with metabolic activation (10% S9), 50 μg per plate
[17] = TA98, with metabolic activation (10% S9), 100 μg per plate
[18] = TA98, without metabolic activation, 0.1 μg per plate
[19] = TA98, without metabolic activation, 0.5 μg per plate
[20] = TA98, without metabolic activation, 1 μg per plate
[21] = TA98, without metabolic activation, 5 μg per plate
[22] = TA98, without metabolic activation, 10 μg per plate
[23] = TA98, without metabolic activation, 50 μg per plate
[24] = TA98, without metabolic activation, 100 μg per plate
[25] = presence and absence of metabolic activation
[26] = TA100, with metabolic activation (10% S9), 0.1 μg per plate
[27] = TA100, with metabolic activation (10% S9), 0.5 μg per plate
[28] = TA100, with metabolic activation (10% S9), 1 μg per plate
[29] = TA100, with metabolic activation (10% S9), 5 μg per plate
[30] = TA100, with metabolic activation (10% S9), 10 μg per plate
[31] = TA100, with metabolic activation (10% S9), 50 μg per plate
[32] = TA100, with metabolic activation (10% S9), 100 μg per plate
[33] = TA100, without metabolic activation, 0.1 μg per plate
[34] = TA100, without metabolic activation, 0.5 μg per plate
[35] = TA100, without metabolic activation, 1 μg per plate
[36] = TA100, without metabolic activation, 5 μg per plate
[37] = TA100, without metabolic activation, 10 μg per plate
[38] = TA100, without metabolic activation, 50 μg per plate
[39] = TA100, without metabolic activation, 100 μg per plate

[O-][n+]1nc(N2CCCC2)[n+]([O-])c2cc3c(cc21)CCC3 [Compound 20q, 3-(pyrrolidin-1-yl)-7,8-dihydro-6H-indeno[5,6-e][1,2,4]triazine 1,4-dioxide]
Mean revertants per plate [1, 11]: 39.5
Ratio treated/solvent [1, 11]: 1.4
Mean revertants per plate [1, 12]: 30.0
Ratio treated/solvent [1, 12]: 1.1
Mean revertants per plate [1, 13]: 47.5
Ratio treated/solvent [1, 13]: 1.7
Mean revertants per plate [1, 14]: 124.0
Ratio treated/solvent [1, 14]: 4.5
Mean revertants per plate [1, 15]: 266.5
Ratio treated/solvent [1, 15]: 9.8
Mean revertants per plate [1, 16]: 988.0
Ratio treated/solvent [1, 16]: 36.1
Mean revertants per plate [1, 17]: 1566.0
Ratio treated/solvent [1, 17]: 57.3
Mean revertants per plate [1, 18]: 33.0
Ratio treated/solvent [1, 18]: 1.0
Mean revertants per plate [1, 19]: 50.5
Ratio treated/solvent [1, 19]: 1.6
Mean revertants per plate [1, 20]: 85.0
Ratio treated/solvent [1, 20]: 2.7
Mean revertants per plate [1, 21]: 241.0
Ratio treated/solvent [1, 21]: 7.5
Mean revertants per plate [1, 22]: 378.5
Ratio treated/solvent [1, 22]: 11.8
Mean revertants per plate [1, 23]: 797.0
Ratio treated/solvent [1, 23]: 24.9
Mean revertants per plate [1, 24]: 1133.0
Ratio treated/solvent [1, 24]: 35.4
number of revertant colonies, TA98 [1, 25]: dose-related increases in the number of revertant colonies
plasma drug concentration at the 24 hr time point [2]: lower than the limit of quantitation
Antimicrobial activity, Salmonella typhimurium -Hisg46 [3]: >32 µg/mL
Antimicrobial activity, Enterococcus fecalis [4]: >32 µg/mL
susceptibility of M. abscessus [5]: resistant
Antimicrobial activity, Mycobacterium abscessus ([5]; ATCC 19977): >32 µg/mL
Antimicrobial activity, Klebsiella pneumoniae [6]: >32 µg/mL
Mean revertants per plate [7, 26]: 171.5
Ratio treated/solvent [7, 26]: 1.1
Mean revertants per plate [7, 27]: 204.0
Ratio treated/solvent [7, 27]: 1.3
Mean revertants per plate [7, 28]: 180.5
Ratio treated/solvent [7, 28]: 1.1
Mean revertants per plate [7, 29]: 267.0
Ratio treated/solvent [7, 29]: 1.7
Mean revertants per plate [7, 30]: 291.5
Ratio treated/solvent [7, 30]: 1.8
Mean revertants per plate [7, 31]: 700.5
Ratio treated/solvent [7, 31]: 4.4
Mean revertants per plate [7, 32]: 916.0
Ratio treated/solvent [7, 32]: 5.8
Mean revertants per plate [7, 33]: 173.0
Ratio treated/solvent [7, 33]: 1.2
Mean revertants per plate [7, 34]: 155.0
Ratio treated/solvent [7, 34]: 1.0
Mean revertants per plate [7, 35]: 206.0
Ratio treated/solvent [7, 35]: 1.4
Mean revertants per plate [7, 36]: 303.0
Ratio treated/solvent [7, 36]: 2.0
Mean revertants per plate [7, 37]: 392.0
Ratio treated/solvent [7, 37]: 2.6
Mean revertants per plate [7, 38]: 1033.5
Ratio treated/solvent [7, 38]: 7.0
Mean revertants per plate [7, 39]: 1468.0
Ratio treated/solvent [7, 39]: 9.9
number of revertant colonies, TA100 [7, 25]: dose-related increases in the number of revertant colonies
Antimicrobial activity, Salmonella choleraesuis [8]: >32 µg/mL
MIC (Mtb H37Rv; read-out: MIC, H37Rv, Table 5): 0.62 µg/mL (≈ 2.28 µM)
MIC (Mtb H37Rv; read-out: TB MIC - SRI, Tables 1-4 and text): 0.31 µg/mL (≈ 1.14 µM)
Antimicrobial activity, Mtb H37Rv (Mtb H37Rv; source CSU, SI Table 1): 0.31 µg/mL
Antimicrobial activity, Escherichia coli [9]: >32 µg/mL
Mutagenic potential in MOLY assay ([10]; 10 μg/mL, +S9, 4-Hr Exposure): Negative
Mutagenic potential in MOLY assay ([10]; 10 μg/mL, +S9, 24-Hr Exposure): Negative
Mutagenic potential in MOLY assay ([10]; 10 μg/mL, −S9, 4-Hr Exposure): Negative
Mutagenic potential in MOLY assay ([10]; 10 μg/mL, −S9, 24-Hr Exposure): Negative
Mutagenic potential in MOLY assay ([10]; 25 μg/mL, +S9, 4-Hr Exposure): Negative^a
Mutagenic potential in MOLY assay ([10]; 25 μg/mL, +S9, 24-Hr Exposure): Negative
Mutagenic potential in MOLY assay ([10]; 25 μg/mL, −S9, 4-Hr Exposure): Negative
Mutagenic potential in MOLY assay ([10]; 25 μg/mL, −S9, 24-Hr Exposure): Negative
Mutagenic potential in MOLY assay ([10]; 50 μg/mL, +S9, 4-Hr Exposure): Negative
Mutagenic potential in MOLY assay ([10]; 50 μg/mL, +S9, 24-Hr Exposure): Negative
Mutagenic potential in MOLY assay ([10]; 50 μg/mL, −S9, 4-Hr Exposure): Negative
Mutagenic potential in MOLY assay ([10]; 50 μg/mL, −S9, 24-Hr Exposure): Negative
Mutagenic potential in MOLY assay ([10]; 100 μg/mL, +S9, 4-Hr Exposure): Negative
Mutagenic potential in MOLY assay ([10]; 100 μg/mL, +S9, 24-Hr Exposure): Negative
Mutagenic potential in MOLY assay ([10]; 100 μg/mL, −S9, 4-Hr Exposure): Negative
Mutagenic potential in MOLY assay ([10]; 100 μg/mL, −S9, 24-Hr Exposure): Negative
mutation frequency in MOLY assay ([10]; presence or absence of S9, non-cytotoxic dose levels, up to 100 μg/mL for 20q): no mutagenic activity; also recorded: negative response for mutation frequency
